Assay results taken from patent publication EP0197829A1, “5H-pyrido[3',4':4,5]pyrrolo[3,2-c]pyridine derivatives, process for their preparation and their antitunour activity” (SANOFI, priority 1985, dated 1986).
Read-outs that look alike come from different tables or passages of the source.

How the values were obtained:
[1] = system: leucémie P 388; assay type: in vivo, souris hybrides CDF1
Description: (§1) L'activité antitumorale a été testée in vivo sur différentes tumeurs selon le protocole général suivant : Toutes les souris mâles ou femelles sont inoculées par voie intrapéritonéale au jour Jo avec une quantité déterminée de cellules tumorales viables, variable selon la tumeur.
(§2) Elles sont ensuite réparties en différents lots. Chaque lot correspondant aux animaux traités par le produit à tester à une dose déterminée est composé de lO souris. Dans ce cas, le produit à tester est dissous dans l'eau distillée et il est administré, pendant n jours (J1-Jn) variables selon le protocole choisi, par voie intrapéritonéale à raison de 0,1 ml par lO g de poids des souris traitées, les doses du produit administré étant précisées dans les tableaux ci-dessous.
(§3) Le lot "Contrôle négatif", correspondant aux animaux qui ne sont pas traités par un produit, comprend 2 √N animaux, N étant égal au nombre total de souris traitées par un produit.
(§4) Enfin, tous lés essais sont conduits parallèlement à l'étude d'un lot appelé "Contrôle positif" de 10 animaux qui est traité par une molécule active, variable selon le protocole choisi, dans les mêmes conditions que les lots traités par le produit à tester, afin de valider l'essai.
(§5) L'activité antitumorale est évaluée en considérant l'augmentation du temps de survie des animaux traités par rapport à celui des animaux du lot "Contrôle négatif" selon la formule : • Jour médian de survie des animaux traités à une T/C = dose donnée de produit x 100 • Jour médian de survie des animaux "Contrôle négatif"
(§6) Un composé est considéré comme étant actif lorsque la valeur du rapport T/C est égale ou supérieure à 125 % selon le protocole retenu. Il est toxique lorsque cette valeur est égale ou inférieure à 85 %. Le produit est également considéré comme toxique lorsque la variation pondérale, exprimée en grammes et calculée par la formule : Poids moyen du lot mesuré au jour 5 - poids moyen du même lot au jour 1, est égale ou inférieure à -4g . a) Test de la leucémie P 388 (GERAN et al., Cancer Chemother, 1972, 2, 07-57).
Les essais sont effectués avec des souris hybrides CDF1 inoculées par voie intrapéritonéale avec […] leucémiques de la lignée P 388. Le composé à tester est administré pendant 5 jours (Jl-J5). Le contrôle positif du test est le 5-fluorouracile qui est administré dans les mêmes conditions.
[…] Un composé est considéré comme étant actif lorsque le rapport T/C est supérieur à 127 %.

[2] = system: leucémie L 1210; test: L 1210 leukemia test in vivo; parameters: species or system souris hybrides CDF1; conditions: for Survivants: at day J 60
Description: as §1, §2, §3, §4, §5, §6
b) Test de la leucémie L 1210 (GERAN et al., Cancer Chemother, 1972, 2, 07-57).
Les essais sont effectués avec des souris hybrides CDF1 inoculées avec 10^5 cellules leucémiques de la lignée L 1210. Le composé à tester est administré pendant 5 jours (J1-J5). Le contrôle positif du test est le 5-fluorouracile administré dans les mêmes conditions. Le nombre d'animaux survivants est évalué au jour J 60. Un composé est considéré comme étant actif lorsque le rapport T/C est supérieur ou égal à 125 %.

[3] = system: réticulosarcome M5-M5076; test: M5-M5076 reticulosarcoma test in vivo; parameters: species or system souris hybrides BDF1; conditions: for Survivants: at day J 75
Description: as §1, §2, §3, §4, §5, §6
d) Test du réticulosarcome M5-M5076.
Les essais sont effectués avec des souris hybrides BDF1 inoculées avec 10^6 cellules de la lignée M5-M5076. Le composé à tester est administré 5 fois successivement de façon séquentielle (Jl, 5, 9, 13, 17). Le contrôle positif du test est le cyclophosphamide administré dans les mêmes conditions. Le nombre d'animaux survivants est évalué au jour J 75. Un composé est considéré comme actif lorsque le rapport T/C est supérieur ou égal à 125 %.

[4] = 5 mg/kg i.p. J1-J5, at day J 40
[5] = 10 mg/kg i.p. J1-J5, at day J 40
[6] = 20 mg/kg i.p. J1-J5, at day J 40
[7] = 40 mg/kg i.p. J1-J5, at day J 40
[8] = 80 mg/kg i.p. J1-J5, at day J 40
[9] = 1,25 mg/kg i.p. J1-J5, at day J 40
[10] = 2,5 mg/kg i.p. J1-J5, at day J 40
[11] = 100 mg/kg i.p. J1, 5, 9, 13, 17
[12] = 150 mg/kg i.p. J1, 5, 9, 13, 17

CCN(CC)CCCNc1ncc(C)c2c1c1cnccc1n2C [Dérivé N° 4, [(diéthylamino-3 propyl-1)amino]-1 diméthyl-4,5 5-H pyrido[3',4':4,5]pyrrolo[3,2-c]pyridine]
Jour médian de survie ([1]; 5 mg/kg i.p. J1-J5): 14,25
T/C % ([1]; 5 mg/kg i.p. J1-J5): 130%
Survivants [1, 4]: 0/10
Jour médian de survie ([1]; 10 mg/kg i.p. J1-J5): 16,13
T/C % ([1]; 10 mg/kg i.p. J1-J5): 147%
Survivants [1, 5]: 0/10
Jour médian de survie ([1]; 20 mg/kg i.p. J1-J5): 18,0
T/C % ([1]; 20 mg/kg i.p. J1-J5): 164%
Survivants [1, 6]: 0/10
Jour médian de survie ([1]; 40 mg/kg i.p. J1-J5): 18,75
T/C % ([1]; 40 mg/kg i.p. J1-J5): 172%
Survivants [1, 7]: 0/10
Jour médian de survie ([1]; 50 mg/kg i.p. J1-J5): 25
T/C % ([1]; 50 mg/kg i.p. J1-J5): 207%
Survivants ([1]; 50 mg/kg i.p. J1-J5, à J 42): 3/10 à J 42
Jour médian de survie ([1]; 80 mg/kg i.p. J1-J5): 8,9
T/C % ([1]; 80 mg/kg i.p. J1-J5): 81%
Survivants [1, 8]: 0/10
Jour médian de survie ([1]; 1,25 mg/kg i.p. J1-J5): 12,6
T/C % ([1]; 1,25 mg/kg i.p. J1-J5): 115%
Survivants [1, 9]: 0/10
Jour médian de survie ([1]; 2,5 mg/kg i.p. J1-J5): 14,25
T/C % ([1]; 2,5 mg/kg i.p. J1-J5): 130%
Survivants [1, 10]: 0/10
Jour médian de survie ([2]; 5 mg/kg i.p. J1-J5): 12,75
T/C % ([2]; 5 mg/kg i.p. J1-J5): 138%
Survivants ([2]; 5 mg/kg i.p. J1-J5): 0
Jour médian de survie ([2]; 15 mg/kg i.p. J1-J5): 13,75
T/C % ([2]; 15 mg/kg i.p. J1-J5): 149%
Survivants ([2]; 15 mg/kg i.p. J1-J5): 0
Jour médian de survie ([2]; 30 mg/kg i.p. J1-J5): 17,25
T/C % ([2]; 30 mg/kg i.p. J1-J5): 188%
Survivants ([2]; 30 mg/kg i.p. J1-J5): 0
Jour médian de survie ([2]; 60 mg/kg i.p. J1-J5): 18,0
T/C % ([2]; 60 mg/kg i.p. J1-J5): 196%
Survivants ([2]; 60 mg/kg i.p. J1-J5): 1
Jour médian de survie ([2]; 80 mg/kg i.p. J1-J5): 9,1
T/C % ([2]; 80 mg/kg i.p. J1-J5): 99%
Survivants ([2]; 80 mg/kg i.p. J1-J5): 0
Jour médian de survie ([2]; 2,5 mg/kg i.p. J1-J5): 10,9
T/C % ([2]; 2,5 mg/kg i.p. J1-J5): 118%
Survivants ([2]; 2,5 mg/kg i.p. J1-J5): 0
Jour médian de survie ([3]; 10 mg/kg i.p. J1, 5, 9, 13, 17): 28,3
T/C % ([3]; 10 mg/kg i.p. J1, 5, 9, 13, 17): 108%
Survivants ([3]; 10 mg/kg i.p. J1, 5, 9, 13, 17): 0
Jour médian de survie ([3]; 25 mg/kg i.p. J1, 5, 9, 13, 17): 41,75
T/C % ([3]; 25 mg/kg i.p. J1, 5, 9, 13, 17): 159%
Survivants ([3]; 25 mg/kg i.p. J1, 5, 9, 13, 17): 1
Jour médian de survie ([3]; 50 mg/kg i.p. J1, 5, 9, 13, 17): 53,0
T/C % ([3]; 50 mg/kg i.p. J1, 5, 9, 13, 17): 202%
Survivants ([3]; 50 mg/kg i.p. J1, 5, 9, 13, 17): 4
Jour médian de survie [3, 11]: 48,0
T/C % [3, 11]: 182%
Survivants [3, 11]: 2
Jour médian de survie [3, 12]: 14,0
T/C % [3, 12]: 53%
Survivants [3, 12]: 0

Cc1cnc(NCCCN(C)C)c2c1[nH]c1ccncc12 [Dérivé N° 3, [(diméthylamino-3 propyl-1)amino]-1 méthyl-4 5-H pyrido[3',4':4,5]pyrrolo[3,2-c]pyridine]
Jour médian de survie ([1]; 5 mg/kg i.p. J1-J5): 16,25
T/C % ([1]; 5 mg/kg i.p. J1-J5): 147%
Survivants [1, 4]: 0
Jour médian de survie ([1]; 10 mg/kg i.p. J1-J5): 17,75
T/C % ([1]; 10 mg/kg i.p. J1-J5): 161%
Survivants [1, 5]: 0
Jour médian de survie ([1]; 20 mg/kg i.p. J1-J5): 20,0
T/C % ([1]; 20 mg/kg i.p. J1-J5): 181%
Survivants [1, 6]: 0
Jour médian de survie ([1]; 40 mg/kg i.p. J1-J5): 19,3
T/C % ([1]; 40 mg/kg i.p. J1-J5): 175%
Survivants [1, 7]: 1
Jour médian de survie ([1]; 80 mg/kg i.p. J1-J5): 7,3
T/C % ([1]; 80 mg/kg i.p. J1-J5): 66%
Survivants [1, 8]: 0
Jour médian de survie ([1]; 0,625 mg/kg i.p. J1-J5): 13,1
T/C % ([1]; 0,625 mg/kg i.p. J1-J5): 119%
Survivants ([1]; 0,625 mg/kg i.p. J1-J5, at day J 40): 0
Jour médian de survie ([1]; 1,25 mg/kg i.p. J1-J5): 14,1
T/C % ([1]; 1,25 mg/kg i.p. J1-J5): 128%
Survivants [1, 9]: 0
Jour médian de survie ([1]; 2,5 mg/kg i.p. J1-J5): 15,0
T/C % ([1]; 2,5 mg/kg i.p. J1-J5): 136%
Survivants [1, 10]: 0
Jour médian de survie ([2]; 5 mg/kg i.p. J1-J5): 14,0
T/C % ([2]; 5 mg/kg i.p. J1-J5): 152%
Survivants ([2]; 5 mg/kg i.p. J1-J5): 0
Jour médian de survie ([2]; 10 mg/kg i.p. J1-J5): 16,25
T/C % ([2]; 10 mg/kg i.p. J1-J5): 177%
Survivants ([2]; 10 mg/kg i.p. J1-J5): 0
Jour médian de survie ([2]; 20 mg/kg i.p. J1-J5): 15,6
T/C % ([2]; 20 mg/kg i.p. J1-J5): 170%
Survivants ([2]; 20 mg/kg i.p. J1-J5): 0
Jour médian de survie ([2]; 40 mg/kg i.p. J1-J5): 9,25
T/C % ([2]; 40 mg/kg i.p. J1-J5): 100%
Survivants ([2]; 40 mg/kg i.p. J1-J5): 0
Jour médian de survie ([2]; 50 mg/kg i.p. J1-J5): 8,2
T/C % ([2]; 50 mg/kg i.p. J1-J5): 89%
Survivants ([2]; 50 mg/kg i.p. J1-J5): 0
Jour médian de survie ([2]; 1,25 mg/kg i.p. J1-J5): 11,75
T/C % ([2]; 1,25 mg/kg i.p. J1-J5): 128%
Survivants ([2]; 1,25 mg/kg i.p. J1-J5): 0
Jour médian de survie ([2]; 2,5 mg/kg i.p. J1-J5): 12,90
T/C % ([2]; 2,5 mg/kg i.p. J1-J5): 140%
Survivants ([2]; 2,5 mg/kg i.p. J1-J5): 0
Jour médian de survie ([3]; 25 mg/kg i.p. J1, 5, 9, 13, 17): 51,0
T/C % ([3]; 25 mg/kg i.p. J1, 5, 9, 13, 17): 195%
Survivants ([3]; 25 mg/kg i.p. J1, 5, 9, 13, 17): 1
Jour médian de survie ([3]; 50 mg/kg i.p. J1, 5, 9, 13, 17): 45,0
T/C % ([3]; 50 mg/kg i.p. J1, 5, 9, 13, 17): 172%
Survivants ([3]; 50 mg/kg i.p. J1, 5, 9, 13, 17): 0
Jour médian de survie ([3]; 75 mg/kg i.p. J1, 5, 9, 13, 17): 41,7
T/C % ([3]; 75 mg/kg i.p. J1, 5, 9, 13, 17): 159%
Survivants ([3]; 75 mg/kg i.p. J1, 5, 9, 13, 17): 0
Jour médian de survie [3, 11]: 44,7
T/C % [3, 11]: 171%
Survivants [3, 11]: 0
Jour médian de survie [3, 12]: 10,0
T/C % [3, 12]: 38%
Survivants [3, 12]: 0
